Experiment [1] has as its target TGF-beta receptor type-2 (Homo sapiens) (UniProt P37173). Put plainly: Inhibition of human recombinant TGFbR2 at 40 nM in presence of ATP by radiometric assay relative to control.
The target of experiment [2] is Ephrin type-A receptor 4 (Homo sapiens) (UniProt P54764). Briefly: Inhibition of human recombinant EphA4 at 40 nM related to control ULK1.
Experiment [3] concerns the target Mitogen-activated protein kinase 11 (Homo sapiens) (UniProt Q15759). Put plainly: Inhibition of human recombinant p38beta at 40 nM related to control ULK1.
Experiment [4] addresses Epithelial discoidin domain-containing receptor 1 (Homo sapiens) (UniProt Q08345). Briefly: Inhibition of human recombinant DDR1 at 40 nM related to control ULK1.
Experiment [5] addresses Serine/threonine-protein kinase SBK1 (Homo sapiens) (UniProt Q52WX2). Put plainly: Inhibition of human recombinant SBK1 at 40 nM related to control ULK1.
Experiment [6] addresses Glycogen synthase kinase-3 beta (Homo sapiens) (UniProt P49841). Put plainly: Inhibition of human recombinant GSK3B at 500 nM related to control ULK1.
The target of experiment [7] is Leukocyte tyrosine kinase receptor (Homo sapiens) (UniProt P29376). Put plainly: Inhibition of human recombinant LTK at 500 nM related to control ULK1.
The target of experiment [8] is Serine/threonine-protein kinase N1 (Homo sapiens) (UniProt Q16512). Briefly: Inhibition of human recombinant PKN1 at 500 nM in presence of ATP by radiometric assay relative to control.
Experiment [9] deals with T1, Serine/threonine-protein kinase 3 (Homo sapiens) (UniProt Q13188).
T1 sequence (whole entry): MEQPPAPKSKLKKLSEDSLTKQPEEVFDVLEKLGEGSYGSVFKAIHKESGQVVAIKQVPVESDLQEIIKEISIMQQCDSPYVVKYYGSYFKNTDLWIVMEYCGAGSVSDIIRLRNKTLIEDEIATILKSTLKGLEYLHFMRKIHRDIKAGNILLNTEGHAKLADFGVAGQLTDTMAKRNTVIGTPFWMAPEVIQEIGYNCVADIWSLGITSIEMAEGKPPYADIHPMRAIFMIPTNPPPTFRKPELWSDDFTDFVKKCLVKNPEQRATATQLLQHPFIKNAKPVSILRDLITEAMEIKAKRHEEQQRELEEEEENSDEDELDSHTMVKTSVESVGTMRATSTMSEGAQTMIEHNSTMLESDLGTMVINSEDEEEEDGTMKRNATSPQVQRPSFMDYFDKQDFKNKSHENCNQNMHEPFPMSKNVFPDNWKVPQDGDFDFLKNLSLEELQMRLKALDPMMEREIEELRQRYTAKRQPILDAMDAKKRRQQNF
Briefly: Inhibition of human recombinant MST2 at 500 nM related to control ULK1.

Experiment [10] deals with Phosphorylase b kinase gamma catalytic chain, skeletal muscle/heart isoform (Homo sapiens) (UniProt Q16816). Briefly: Inhibition of human recombinant PHKg1 at 500 nM in presence of ATP by radiometric assay relative to control.
Sequence of Phosphorylase b kinase gamma catalytic chain, skeletal muscle/heart isoform (Homo sapiens) (Q16816 whole entry, looked up, canonical isoform): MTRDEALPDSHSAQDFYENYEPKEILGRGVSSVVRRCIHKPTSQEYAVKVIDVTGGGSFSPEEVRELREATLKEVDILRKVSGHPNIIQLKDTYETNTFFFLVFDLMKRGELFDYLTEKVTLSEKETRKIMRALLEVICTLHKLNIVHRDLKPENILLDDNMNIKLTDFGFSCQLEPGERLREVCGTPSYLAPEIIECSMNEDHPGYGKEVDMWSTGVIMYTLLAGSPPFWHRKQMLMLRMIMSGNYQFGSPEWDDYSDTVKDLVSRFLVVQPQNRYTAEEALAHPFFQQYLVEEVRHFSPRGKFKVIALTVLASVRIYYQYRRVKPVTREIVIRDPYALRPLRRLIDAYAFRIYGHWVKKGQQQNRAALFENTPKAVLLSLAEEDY
The target is the same in experiment [11]. Briefly: Inhibition of human recombinant PHKg1 at 15 nM related to control ULK1.
For experiment [12], the target named is Serine/threonine-protein kinase 35 (Homo sapiens) (UniProt Q8TDR2). Briefly: Inhibition of human recombinant CLIK1 at 15 nM related to control ULK1.
Sequence of Serine/threonine-protein kinase 35 (Homo sapiens) (Q8TDR2 whole entry): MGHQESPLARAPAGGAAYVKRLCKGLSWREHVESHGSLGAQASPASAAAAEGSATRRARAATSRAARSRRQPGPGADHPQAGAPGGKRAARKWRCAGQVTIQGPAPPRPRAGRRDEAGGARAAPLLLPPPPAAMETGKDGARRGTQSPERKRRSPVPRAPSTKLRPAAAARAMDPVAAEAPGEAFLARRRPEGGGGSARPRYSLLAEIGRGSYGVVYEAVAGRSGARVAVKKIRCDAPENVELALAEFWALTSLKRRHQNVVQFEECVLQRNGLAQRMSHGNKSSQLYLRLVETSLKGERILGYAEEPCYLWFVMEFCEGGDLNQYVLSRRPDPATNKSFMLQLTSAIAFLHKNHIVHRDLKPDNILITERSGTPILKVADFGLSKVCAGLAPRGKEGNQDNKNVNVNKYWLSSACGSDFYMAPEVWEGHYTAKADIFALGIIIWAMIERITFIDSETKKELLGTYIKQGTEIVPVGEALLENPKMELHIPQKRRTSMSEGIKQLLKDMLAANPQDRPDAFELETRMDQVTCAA
Experiment [13] has as its target Tyrosine-protein kinase Fes/Fps (Homo sapiens) (UniProt P07332). Briefly: Inhibition of human recombinant FES at 15 nM in presence of ATP by radiometric assay relative to control.
In experiment [14] the target is [Pyruvate dehydrogenase (acetyl-transferring)] kinase isozyme 4, mitochondrial (Homo sapiens) (UniProt Q16654). Briefly: Inhibition of human recombinant PDHK4 at 15 nM in presence of ATP by radiometric assay relative to control.
Sequence of [Pyruvate dehydrogenase (acetyl-transferring)] kinase isozyme 4, mitochondrial (Homo sapiens) (Q16654 whole entry, looked up): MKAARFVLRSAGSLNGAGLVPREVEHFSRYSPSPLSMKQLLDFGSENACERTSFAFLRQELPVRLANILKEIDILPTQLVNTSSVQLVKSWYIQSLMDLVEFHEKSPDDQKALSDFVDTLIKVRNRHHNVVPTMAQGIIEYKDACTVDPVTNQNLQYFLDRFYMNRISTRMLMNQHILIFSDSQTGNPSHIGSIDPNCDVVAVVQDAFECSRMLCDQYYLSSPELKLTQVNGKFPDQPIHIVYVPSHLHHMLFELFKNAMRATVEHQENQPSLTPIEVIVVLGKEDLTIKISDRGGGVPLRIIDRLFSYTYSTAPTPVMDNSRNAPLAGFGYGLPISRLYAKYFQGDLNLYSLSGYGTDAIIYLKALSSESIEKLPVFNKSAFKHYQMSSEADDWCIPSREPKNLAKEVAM
In experiment [15] the target is Cyclin-dependent kinase 1 (Homo sapiens) (UniProt P06493). Briefly: Inhibition of human recombinant CDC2 at 15 nM in presence of ATP by radiometric assay relative to control.
Sequence of Cyclin-dependent kinase 1 (Homo sapiens) (P06493 whole entry, looked up): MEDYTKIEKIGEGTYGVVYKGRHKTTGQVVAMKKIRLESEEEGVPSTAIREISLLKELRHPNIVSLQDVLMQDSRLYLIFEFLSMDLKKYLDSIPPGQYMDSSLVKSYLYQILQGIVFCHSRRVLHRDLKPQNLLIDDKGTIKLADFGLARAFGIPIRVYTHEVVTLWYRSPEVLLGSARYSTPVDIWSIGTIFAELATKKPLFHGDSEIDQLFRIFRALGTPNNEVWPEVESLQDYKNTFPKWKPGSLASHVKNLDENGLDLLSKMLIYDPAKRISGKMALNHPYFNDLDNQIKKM
Experiment [16] addresses Tyrosine-protein kinase ABL2 (Homo sapiens) (UniProt P42684). Put plainly: Inhibition of human recombinant ABL2 at 15 nM related to control ULK1.
The target of experiment [17] is Activated CDC42 kinase 1 (Homo sapiens) (UniProt Q07912). Briefly: Inhibition of human recombinant ACK at 15 nM related to control ULK1.
The target of experiment [18] is Focal adhesion kinase 1 (Homo sapiens) (UniProt Q05397). Put plainly: Inhibition of human recombinant FAK at 15 nM related to control ULK1.
Experiment [19] has as its target Proto-oncogene tyrosine-protein kinase receptor Ret (Homo sapiens) (UniProt P07949). Put plainly: Inhibition of human recombinant RET at 15 nM related to control ULK1.
The target in experiment [20] is T2, Serine/threonine-protein kinase Chk1 (Homo sapiens) (UniProt O14757).
T2 sequence (whole entry): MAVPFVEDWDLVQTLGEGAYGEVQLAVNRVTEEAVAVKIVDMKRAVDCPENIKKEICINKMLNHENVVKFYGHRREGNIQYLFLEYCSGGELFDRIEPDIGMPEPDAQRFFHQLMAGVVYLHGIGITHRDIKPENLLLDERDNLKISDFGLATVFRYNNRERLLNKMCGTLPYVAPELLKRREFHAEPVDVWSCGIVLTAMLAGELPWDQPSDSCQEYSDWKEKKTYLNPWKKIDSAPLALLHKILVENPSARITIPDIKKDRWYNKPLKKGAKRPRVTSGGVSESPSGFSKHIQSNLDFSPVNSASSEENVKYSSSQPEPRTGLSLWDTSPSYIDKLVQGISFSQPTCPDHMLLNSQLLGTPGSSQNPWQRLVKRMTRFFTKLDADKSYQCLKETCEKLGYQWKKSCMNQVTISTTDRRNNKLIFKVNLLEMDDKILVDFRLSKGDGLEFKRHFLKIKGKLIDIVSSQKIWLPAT
Briefly: Inhibition of human recombinant CHK1 at 15 nM related to control ULK1.

Experiment [21] addresses Cyclin-dependent kinase 12 (Homo sapiens) (UniProt Q9NYV4). Briefly: Inhibition of human recombinant CRK7 at 15 nM related to control ULK1.
Experiment [22] concerns the target T3, Mitogen-activated protein kinase 12 (Homo sapiens) (UniProt P53778).
T3 sequence (whole entry): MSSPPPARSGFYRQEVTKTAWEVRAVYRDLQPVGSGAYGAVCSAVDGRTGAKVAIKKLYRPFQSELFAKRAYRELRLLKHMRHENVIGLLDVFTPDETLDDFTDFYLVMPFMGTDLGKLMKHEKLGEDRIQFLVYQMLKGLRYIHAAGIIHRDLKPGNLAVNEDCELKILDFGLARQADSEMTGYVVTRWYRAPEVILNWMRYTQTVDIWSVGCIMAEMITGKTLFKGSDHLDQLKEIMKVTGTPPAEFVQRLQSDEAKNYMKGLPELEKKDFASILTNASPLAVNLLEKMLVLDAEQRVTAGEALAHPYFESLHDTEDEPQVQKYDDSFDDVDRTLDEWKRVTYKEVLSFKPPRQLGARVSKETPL
Briefly: Inhibition of human recombinant p38gamma at 15 nM in presence of ATP by radiometric assay relative to control.

Sequence of Glycogen synthase kinase-3 beta (Homo sapiens) (P49841 whole entry, looked up): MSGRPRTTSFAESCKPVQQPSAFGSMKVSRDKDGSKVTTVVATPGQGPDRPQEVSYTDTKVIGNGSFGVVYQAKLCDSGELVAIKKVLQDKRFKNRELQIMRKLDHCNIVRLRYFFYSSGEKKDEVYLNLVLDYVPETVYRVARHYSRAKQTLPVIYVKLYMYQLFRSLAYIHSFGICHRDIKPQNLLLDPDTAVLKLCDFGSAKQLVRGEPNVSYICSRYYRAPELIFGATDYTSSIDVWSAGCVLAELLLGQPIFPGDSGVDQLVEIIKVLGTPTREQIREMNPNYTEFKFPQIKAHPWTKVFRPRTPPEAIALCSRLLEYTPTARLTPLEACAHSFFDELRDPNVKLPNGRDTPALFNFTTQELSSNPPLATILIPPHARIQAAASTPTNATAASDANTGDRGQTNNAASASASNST
Sequence of Proto-oncogene tyrosine-protein kinase receptor Ret (Homo sapiens) (P07949 whole entry): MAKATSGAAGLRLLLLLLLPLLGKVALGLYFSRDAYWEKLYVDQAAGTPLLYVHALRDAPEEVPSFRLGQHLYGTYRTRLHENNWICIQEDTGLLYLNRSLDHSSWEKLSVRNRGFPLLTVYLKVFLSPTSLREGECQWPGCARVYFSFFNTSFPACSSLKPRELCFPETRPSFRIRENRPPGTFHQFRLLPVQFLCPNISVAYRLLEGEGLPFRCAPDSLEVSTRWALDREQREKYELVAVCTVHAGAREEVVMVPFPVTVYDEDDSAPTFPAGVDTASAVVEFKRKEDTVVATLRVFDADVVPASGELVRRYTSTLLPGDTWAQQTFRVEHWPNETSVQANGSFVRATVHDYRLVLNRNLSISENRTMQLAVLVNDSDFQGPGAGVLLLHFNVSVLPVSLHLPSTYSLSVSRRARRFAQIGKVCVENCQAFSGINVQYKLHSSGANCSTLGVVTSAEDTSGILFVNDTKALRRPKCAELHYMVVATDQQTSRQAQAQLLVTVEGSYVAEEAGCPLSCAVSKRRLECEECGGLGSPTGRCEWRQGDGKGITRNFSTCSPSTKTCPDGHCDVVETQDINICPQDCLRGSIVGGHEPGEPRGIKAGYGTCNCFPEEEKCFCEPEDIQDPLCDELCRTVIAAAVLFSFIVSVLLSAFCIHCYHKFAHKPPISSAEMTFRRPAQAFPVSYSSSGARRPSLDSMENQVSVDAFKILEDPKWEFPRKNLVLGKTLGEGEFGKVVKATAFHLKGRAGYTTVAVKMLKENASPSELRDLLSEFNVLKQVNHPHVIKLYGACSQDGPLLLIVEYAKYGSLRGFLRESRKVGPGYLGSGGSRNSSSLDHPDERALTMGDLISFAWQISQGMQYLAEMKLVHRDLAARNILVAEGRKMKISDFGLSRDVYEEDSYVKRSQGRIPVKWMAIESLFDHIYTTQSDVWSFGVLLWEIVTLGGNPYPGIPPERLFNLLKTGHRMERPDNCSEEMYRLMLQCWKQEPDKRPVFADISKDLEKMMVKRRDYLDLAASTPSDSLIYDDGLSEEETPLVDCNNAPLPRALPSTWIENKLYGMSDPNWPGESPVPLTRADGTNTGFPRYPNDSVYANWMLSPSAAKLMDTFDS
Sequence of Tyrosine-protein kinase Fes/Fps (Homo sapiens) (P07332 whole entry): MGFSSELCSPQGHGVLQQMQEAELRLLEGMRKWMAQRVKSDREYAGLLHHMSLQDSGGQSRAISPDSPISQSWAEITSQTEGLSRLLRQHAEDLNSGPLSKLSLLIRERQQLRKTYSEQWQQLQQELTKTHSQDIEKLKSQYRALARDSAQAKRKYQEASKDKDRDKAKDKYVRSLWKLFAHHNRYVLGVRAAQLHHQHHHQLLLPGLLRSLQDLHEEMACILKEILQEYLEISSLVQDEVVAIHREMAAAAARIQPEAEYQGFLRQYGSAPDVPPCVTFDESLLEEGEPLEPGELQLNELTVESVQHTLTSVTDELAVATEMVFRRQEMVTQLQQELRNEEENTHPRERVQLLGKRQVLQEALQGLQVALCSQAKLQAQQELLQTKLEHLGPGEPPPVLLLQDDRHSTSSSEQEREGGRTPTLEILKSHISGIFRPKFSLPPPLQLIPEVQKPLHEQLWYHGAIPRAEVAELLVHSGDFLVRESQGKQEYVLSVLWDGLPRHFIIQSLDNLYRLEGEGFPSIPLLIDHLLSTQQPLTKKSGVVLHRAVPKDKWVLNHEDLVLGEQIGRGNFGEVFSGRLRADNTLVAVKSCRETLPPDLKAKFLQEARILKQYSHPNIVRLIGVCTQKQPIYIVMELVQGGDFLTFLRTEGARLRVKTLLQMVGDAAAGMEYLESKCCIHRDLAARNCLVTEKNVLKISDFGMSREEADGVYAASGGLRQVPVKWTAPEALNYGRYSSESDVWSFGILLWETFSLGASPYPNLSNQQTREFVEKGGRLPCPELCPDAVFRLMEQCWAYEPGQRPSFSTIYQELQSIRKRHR
Sequence of Mitogen-activated protein kinase 11 (Homo sapiens) (Q15759 whole entry, the tested form may be a part): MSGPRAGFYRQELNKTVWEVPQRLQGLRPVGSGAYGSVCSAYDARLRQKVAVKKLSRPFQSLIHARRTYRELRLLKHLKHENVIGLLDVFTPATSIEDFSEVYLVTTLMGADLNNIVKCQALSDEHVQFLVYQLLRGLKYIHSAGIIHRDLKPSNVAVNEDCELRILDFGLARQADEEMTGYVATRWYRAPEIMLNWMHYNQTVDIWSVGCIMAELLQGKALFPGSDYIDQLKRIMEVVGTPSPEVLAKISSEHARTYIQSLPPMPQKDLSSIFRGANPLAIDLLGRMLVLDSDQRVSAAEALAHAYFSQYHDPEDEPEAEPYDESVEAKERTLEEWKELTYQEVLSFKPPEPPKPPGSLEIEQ
Sequence of TGF-beta receptor type-2 (Homo sapiens) (P37173 whole entry): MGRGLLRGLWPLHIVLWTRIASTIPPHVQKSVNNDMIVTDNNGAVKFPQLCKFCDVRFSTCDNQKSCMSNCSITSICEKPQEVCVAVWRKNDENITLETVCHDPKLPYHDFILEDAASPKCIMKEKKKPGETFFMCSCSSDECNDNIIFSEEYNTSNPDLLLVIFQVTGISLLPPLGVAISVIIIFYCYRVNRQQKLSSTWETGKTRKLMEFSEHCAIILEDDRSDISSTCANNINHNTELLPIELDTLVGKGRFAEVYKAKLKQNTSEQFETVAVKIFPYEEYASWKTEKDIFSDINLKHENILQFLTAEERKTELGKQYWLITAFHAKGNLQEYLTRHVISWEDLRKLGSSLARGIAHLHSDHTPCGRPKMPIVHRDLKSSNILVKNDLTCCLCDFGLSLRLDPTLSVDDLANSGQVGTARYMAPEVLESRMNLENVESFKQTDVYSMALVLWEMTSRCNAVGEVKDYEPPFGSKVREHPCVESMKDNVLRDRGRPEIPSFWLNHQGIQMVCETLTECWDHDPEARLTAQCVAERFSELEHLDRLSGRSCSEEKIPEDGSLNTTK

By inhibition is commonly meant the change of the read-out against control, counted positive when it falls. Regarding `O=C(N[C@@H](C1CC1)C(F)(F)F)c1cc(-c2cnn3cc(-c4ccc(F)cc4)cnc23)cs1`, the inhibition in experiment [1] was 47%. For the same molecule, the fold change (FC) in experiment [2] was 0; in experiment [3] it was 0.14; in experiment [4] it was 0.25; in [5], 0.
Regarding `CNC(=O)c1ccccc1Oc1nc(Nc2cc(OC)c(OC)c(OC)c2)ncc1Br`, the fold change (FC) in experiment [6] was 0; in experiment [7], 0.04; in [9] it was 0. Further, the inhibition turned out to be 0% in experiment [8] and 23% in experiment [10].
On to `CC(C)[C@H](NC(=O)c1cc(-c2cnn3cc(-c4ccc(OCCN5CCCCC5)cc4)cnc23)cs1)C(F)(F)F`, for which the fold change (FC) in experiment [11] amounted to 0.58; in experiment [12] it was 0.1; in experiment [16] it was 0.48; in experiment [17], 0; in experiment [18], 0; in [19], 0.16. Further, the fold change (FC) was determined as 0 in experiment [20] and 0.05 in experiment [21]. Besides, the inhibition in experiment [13] came to 0%; in [14], 2%; in experiment [15] it was 24%; in experiment [22] it was 5%.

The values are drawn from ChEMBL document CHEMBL5653631, “A Potent and Selective ULK1 Inhibitor Suppresses Autophagy and Sensitizes Cancer Cells to Nutrient Stress” (iScience, 2018).
